Bounds are passed on as bounds.

For this experiment, the system named is HIV-1 pseudotyped virus. In words: HIV-1 pseudotyped virus assay (luciferase reporter gene, single cycle of infection). Conditions: Human immunodeficiency virus 1, CCR5, 72 h, read-out: Activity (antiviral activity, IC50). In kind it is cell-based. From the text: In this example are illustrated experimental procedures for determining biological activity, such as antiviral activity. For determining biological activity, an HIV-1 infection assay was used to determine the antiviral potency for compounds of the present invention.
For determining biological activity, an HIV-1 pseudotyped virus assay was used to determine the respective antiviral potencies of each compound tested in the assay for comparison. The pseudotyped assay scores for a reduction in infection as indicated by decreased signal from the reporter gene encoding a luciferase enzyme (“reporter gene”). The assay employs cell lines expressing CD4 and either of the primary chemokine receptors (CCR5 or CXCR4) that HIV uses as a co-receptor (“target cells”). Pseudotyped virus was prepared by co-transfection of 293T cells with: 1) a plasmid construct carrying the HIV-1 envelope of choice, in combination with 2) a pseudotyped virus backbone construct in which (a) envelope expression has been abrogated due to a frameshift in the envelope sequence, and (b) the reporter gene replaces nef. Expression of HIV-1 envelope on 293T packaging cells results in the production of a pseudotyped virus carrying the reporter gene that is capable of a single cycle of infection.
The compounds of the present invention being tested for antiviral activity were serially diluted and dose responses determined in duplicate in two separate experiments. The compounds to be tested were added directly to the plated, target cells, followed by the addition of pseudotyped virus described above. The cells were cultured for three days prior harvest. Media and compound were removed, the cell monolayer was washed, lysed by detergent, and then frozen at −80 degrees C. for a minimum of 30 minutes. Following thawing and acclimation to room temperature, luciferase production was quatified by injecting 100 […]I of a substrate (of the enzyme encoded by the reporter gene) into each well followed by detecting the signal (light emitted from the interaction between the enzyme and substrate) after 5 seconds. In the pseudotyped assay, a 50% reduction in signal is significant, and provides the primary cutoff value for assessing antiviral activity (“IC50” is defined as the dilution resulting in a 50% reduction in enzymatic activity as interpolated from a titration curve). Representative compounds according to the present invention, and their antiviral activity, are illustrated in Table 3.
(Reporter assays use an easily measured gene product as a stand-in for the process of interest.)
As to `Cc1ccc(-c2ccc(S(=O)(=O)N3CCN(C(=O)c4ccccc4)CC3C)s2)nn1` (stereo not shown) [Example 146, (3-methyl-4-(5-(6-methylpyridazin-3-yl)thiophen-2-ylsulfonyl)piperazin-1-yl)(phenyl)methanone], the IC50 (commonly the concentration that gives 50% inhibition) is above 5 µM.
Regarding `Cc1ccc(-c2ccc(C(=O)C(=O)N3CCN(C(=O)c4ccccc4)C[C@H]3C)cc2)nc1` [Example 207], the IC50 is below 5 µM.
With `CC1CN(C(=O)c2ccccc2)CCN1C(=O)C(=O)c1ccc(-n2cccn2)cc1` (stereo not shown) [Example 240] the figure was below 5 µM; with `C[C@@H]1CN(C(=O)c2ccccc2)CCN1S(=O)(=O)c1ccc(-c2cn(Cc3ccccc3)nn2)s1` [Example 127, {(R)-4-[5-(1-Benzyl-1H-[1,2,3]triazol-4-yl)-thiophene-2-sulfonyl]-3-methyl-piperazin-1-yl}-phenyl-methanone], above 5 µM.
Next, `COc1cc(-c2cc(C)no2)ccc1C(=O)C(=O)N1CCN(C(=O)c2ccccc2)C[C@H]1C` [Example 180]: below 5 µM.
For the compound `C[C@@H]1CN(C(=O)c2ccccc2)CCN1C(=O)C(=O)c1ccc(-c2cc[nH]n2)cc1N` [Example 219, 1-((R)-4-Benzoyl-2-methyl-piperazin-1-yl)-2-[2-amino-4-(1H-pyrazol-3-yl)-phenyl]-ethane-1,2-dione], the IC50 is below 5 µM.
Next, `C[C@@H]1CN(C(=O)c2ccccc2)CCN1C(=O)C(=O)c1cc(Cl)c(-c2cc[nH]n2)cc1N(C)C` [Example 222]: above 5 µM; `Cc1cc(-c2ccc(C(=O)C(=O)N3CCN(C(=O)c4ccccc4)C[C@H]3C)c(Cl)c2)on1` [Example 209]: below 5 µM.
Regarding `C[C@@H]1CN(C(=O)c2ccccc2)CCN1S(=O)(=O)c1ccc(-n2cccn2)cc1` [Example 133, [(R)-3-methyl-4-(4-pyrazole-1-yl-benzenesulfonyl)-piperazin-1-yl]-phenyl-methanone], the IC50 was above 5 µM.
Next, `C[C@@H]1CN(C(=O)c2ccccc2)CCN1C(=O)C(=O)c1ccc(-n2cccn2)cc1` [Example 193, 1-((R)-4-Benzoyl-2-methyl-piperazin-1-yl)-2-(4-pyrazol-1-yl-phenyl)-ethane-1,2-dione]: below 5 µM; `C[C@@H]1CN(C(=O)c2ccccc2)CCN1C(=O)C(=O)c1cnc(-c2ccccc2)c(Cl)c1O` [Example 242]: above 5 µM.
With `CC1CN(C(=O)c2ccccc2)CCN1S(=O)(=O)c1ccc(-n2ccnn2)cc1` (stereo not shown) [Example 116, [3-Methyl-4-(4-[1,2,3]triazol-1-yl-benzenesulfonyl)-piperazin-1-yl]-phenyl-methanone] the figure was above 5 µM.
Regarding `CC1CN(C(=O)c2ccccc2)CCN1S(=O)(=O)c1ccc(-c2ncccn2)s1` (stereo not shown) [Example 141, (3-methyl-4-(5-(pyrimidin-2-yl)thiophen-2-ylsulfonyl)piperazin-1-yl)(phenyl)methanone], the concentration for half-maximal inhibition (IC50) was below 5 µM.
`Cc1ccnc(-c2ccc(C(=O)C(=O)N3CCN(C(=O)c4ccccc4)CC3C)cc2)n1` (stereo not shown) [Example 208]: the IC50 was below 5 µM.
For the compound `C[C@@H]1CN(C(=O)c2ccccc2)CCN1C(=O)C(=O)c1c[nH]c(-c2cccnc2)c1` [Example 196], the IC50 is above 5 µM.
Next, `C[C@@H]1CN(C(=O)c2ccccc2)CCN1S(=O)(=O)c1ccc(-c2cc(-c3ccccc3)no2)s1` [Example 131, {(R)-3-Methyl-4-[5-(3-phenyl-sioxazol-5-yl)-thiophene-2-sulfonyl]-piperazin-1-yl}-phenyl-methanone]: above 5 µM; `CC1CN(C(=O)c2ccccc2)CCN1S(=O)(=O)c1ccc(-c2cnco2)cc1` (stereo not shown) [Example 166, [3-Methyl-4-(4-oxazol-5-yl-benzenesulfonyl)-piperazin-1-yl]-phenyl methanone]: above 5 µM; `CON(C)C(=O)c1ccc(S(=O)(=O)N2CCN(C(=O)c3ccccc3)CC2C)s1` (stereo not shown) [Example 108, 5-(4-Benzoyl-2-methyl-piperazine-1-sulfonyl)-thiophene-2-carboxylic acid methoxy-methyl-amide]: below 5 µM.
As for `CC1CN(C(=O)c2ccccc2)CCN1S(=O)(=O)c1ccc(C(=O)c2ccon2)s1` (stereo not shown) [Example 112, {4-[5-(Isoxazole-3-carbonyl)-thiophene-2-sulfonyl]-3-methyl-piperazin-1-yl}-phenyl-methanone], the IC50 is above 5 µM.
Turning to `C[C@@H]1CN(C(=O)c2ccccc2)CCN1C(=O)C(=O)c1ccc(-c2cscn2)s1` [Example 178], the IC50 is below 5 µM.
As for `C[C@@H]1CN(C(=O)c2ccccc2)CCN1C(=O)C(=O)c1ccc(-n2ccnc2)cc1` [Example 217], the half-inhibitory concentration (IC50) is below 5 µM.
Next, `COc1cc(-c2cnn(C)c2)ncc1C(=O)C(=O)N1CCN(C(=O)c2ccccc2)C[C@H]1C` [Example 239]: below 5 µM; `C[C@@H]1CN(C(=O)c2ccccc2)CCN1S(=O)(=O)c1ccc(-c2csnn2)s1` [Example 165, [(R)-3-Methyl-4-(5-[1,2,3]thiadiazol-4-yl-thiophene-2-sulfonyl)-piperazin-1-yl]-phenyl-methanone]: above 5 µM.
Next, `CC1CN(C(=O)c2ccccc2)CCN1S(=O)(=O)c1ccc(-c2ncnc3ccsc23)s1` (stereo not shown) [Example 151, (3-methyl-4-(5-(thieno[3,2-d]pyrimidin-4-yl)thiophen-2-ylsulfonyl)piperazin-1-yl)(phenyl)methanone]: above 5 µM; `Cc1cc(C(=O)C(=O)N2CCN(C(=O)c3ccccc3)C[C@H]2C)ccc1-n1cccn1` [Example 213, 1-((R)-4-Benzoyl-2-methyl-piperazin-1-yl)-2-(3-methyl-4-pyrazol-1-yl-phenyl)-ethane-1,2-dione]: above 5 µM.
With `Cc1cc(-n2cccn2)ccc1C(=O)C(=O)N1CCN(C(=O)c2ccccc2)C[C@H]1C` [Example 195, 1-((R)-4-Benzoyl-2-methyl-piperazin-1-yl)-2-(2-methyl-4-pyrazol-1-yl-phenyl)-ethane-1,2-dione], the IC50 is above 5 µM.
For `CC(C)Cn1cc(-c2ccc(S(=O)(=O)N3CCN(C(=O)c4ccccc4)C[C@H]3C)cc2)nn1` [Example 121, {(R)-4-[4-(1-Isobutyl-1H-[1,2,3]triazol-4-yl)-benzenesulfonyl]-3-methyl-piperazin-1-yl}-phenyl-methanone], the concentration for half-maximal inhibition (IC50) was above 5 µM.
Next, `CC(=O)c1ccc(-c2ccc(C(=O)C(=O)N3CCN(C(=O)c4ccccc4)C[C@H]3C)cc2)s1` [Example 198]: below 5 µM.
With `COc1cc(C(=O)C(=O)N2CCN(C(=O)c3ccccc3)C[C@H]2C)ccc1-c1cnco1` [Example 175] the figure was below 5 µM.
With `CC1CN(C(=O)c2ccccc2)CCN1C(=O)C(=O)c1ccc(-c2ccco2)cc1` (stereo not shown) [Example 171, 1-(4-Benzoyl-2-methyl-piperazin-1-yl)-2-(4-furan-2-yl-phenyl)-ethane-1,2-dione] the figure was below 5 µM.
As for `CC1CN(C(=O)c2ccccc2)CCN1S(=O)(=O)c1ccc(-c2cccs2)s1` (stereo not shown) [Example 142, (4-(2,2′-bithiophen-5-ylsulfonyl)-3-methylpiperazin-1-yl)(phenyl)methanone], the IC50 is below 5 µM.
Next, `C[C@@H]1CN(C(=O)c2ccccc2)CCN1C(=O)C(=O)c1ccc(-c2cc[nH]n2)cc1O` [Example 223]: below 5 µM.
Next, `C[C@@H]1CN(C(=O)c2ccccc2)CCN1C(=O)C(=O)c1ccc(-c2nccn2C)cc1` [Example 187]: above 5 µM.
With `CNc1cc(-c2cc[nH]n2)ccc1C(=O)C(=O)N1CCN(C(=O)c2ccccc2)C[C@H]1C` [Example 227] the figure was above 5 µM; with `COc1cc(OC)c(C(=O)C(=O)N2CCN(C(=O)c3ccccc3)C[C@H]2C)cn1` [Example 238], above 5 µM.
Turning to `Cc1cc(C)n(-c2ccc(C(=O)C(=O)N3CCN(C(=O)c4ccccc4)C[C@H]3C)cc2)n1` [Example 250], the IC50 was above 5 µM.
With `CC1CN(C(=O)c2ccccc2)CCN1S(=O)(=O)c1ccc(-c2ccc(-c3ccccc3)nn2)s1` (stereo not shown) [Example 156, (3-methyl-4-(5-(6-phenylpyridazin-3-yl)thiophen-2-ylsulfonyl)piperazin-1-yl)(phenyl)methanone] the figure was above 5 µM; with `COc1cc(Br)ccc1C(=O)C(=O)N1CCN(C(=O)c2ccccc2)C[C@H]1C` [Example 226], below 5 µM; with `C[C@@H]1CN(C(=O)c2ccccc2)CCN1C(=O)C(=O)c1ccc(-c2ccncc2)cc1` [Example 206], below 5 µM.
With `CC1CN(C(=O)c2ccccc2)CCN1S(=O)(=O)c1ccc(-c2ccc(-c3ccon3)s2)s1` (stereo not shown) [Example 143, (4-(5′-(isoxazol-3-yl)-2,2′-bithiophen-5-ylsulfonyl)-3-methylpiperazin-1-yl)(phenyl)methanone], the 50% inhibitory concentration (IC50) was above 5 µM.

Source of the values: US20070259879A1, “Piperazine and piperidine biaryl derivatives” (priority 2006, published 2007).
